Laboratory results from PubChem BioAssay AID1918937 (Molecular Pharmacology Branch, DTP, NCI, 2023).
“And” between values parts separate entries of the source, which are not always exact repeats. Equal entries are not always repeated. Each block holds one compound with its values, some of them ahead of it.

Test system: 521955-158-R2-J5-PDC complex spheroid viability
Assay: Anticancer human tumor 521955-158-R2-J5-PDC patient-derived pancreatic carcinoma cell line growth inhibition
Details: for viability, T/C: stronger effect = lower value
Method in brief: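 Complex spheroids of tumor cells with HUVEC and human MSCs, exposed to iadademstat combined with other agents. Each agent tested in half-log steps from near clinical Cmax (else 10 microM top), DMSO ≤0.25%.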

[1] = curve of first compound, second compound 0.1 µM
[2] = curve of first compound, second compound 0.316 µM
[3] = curve of first compound, second compound 1 µM
[4] = curve of first compound, second compound 3.16 µM
[5] = curve of first compound, second compound 10 µM
[6] = second compound 0.1 µM, first compound 0.0316 µM
[7] = second compound 0.1 µM, first compound 0.1 µM
[8] = second compound 0.1 µM, first compound 0.316 µM
[9] = second compound 0.1 µM, first compound 1 µM
[10] = second compound 0.316 µM, first compound 0.0316 µM
[11] = second compound 0.316 µM, first compound 0.1 µM
[12] = second compound 0.316 µM, first compound 0.316 µM
[13] = second compound 0.316 µM, first compound 1 µM
[14] = second compound 1 µM, first compound 0.0316 µM
[15] = second compound 1 µM, first compound 0.1 µM
[16] = second compound 1 µM, first compound 0.316 µM
[17] = second compound 1 µM, first compound 1 µM
[18] = second compound 3.16 µM, first compound 0.0316 µM
[19] = second compound 3.16 µM, first compound 0.1 µM
[20] = second compound 3.16 µM, first compound 0.316 µM
[21] = second compound 3.16 µM, first compound 1 µM
[22] = second compound 10 µM, first compound 0.0316 µM
[23] = second compound 10 µM, first compound 0.1 µM
[24] = second compound 10 µM, first compound 0.316 µM
[25] = second compound 10 µM, first compound 1 µM
[26] = second compound 0.1 µM, first compound 0.00949 µM
[27] = second compound 0.1 µM, first compound 0.03 µM
[28] = second compound 0.1 µM, first compound 0.0949 µM
[29] = second compound 0.1 µM, first compound 0.3 µM
[30] = second compound 0.1 µM, first compound 0.949 µM
[31] = second compound 0.1 µM, first compound 3 µM
[32] = second compound 0.316 µM, first compound 0.00949 µM
[33] = second compound 0.316 µM, first compound 0.03 µM
[34] = second compound 0.316 µM, first compound 0.0949 µM
[35] = second compound 0.316 µM, first compound 0.3 µM
[36] = second compound 0.316 µM, first compound 0.949 µM
[37] = second compound 0.316 µM, first compound 3 µM
[38] = second compound 1 µM, first compound 0.00949 µM
[39] = second compound 1 µM, first compound 0.03 µM
[40] = second compound 1 µM, first compound 0.0949 µM
[41] = second compound 1 µM, first compound 0.3 µM
[42] = second compound 1 µM, first compound 0.949 µM
[43] = second compound 1 µM, first compound 3 µM
[44] = second compound 3.16 µM, first compound 0.00949 µM
[45] = second compound 3.16 µM, first compound 0.03 µM
[46] = second compound 3.16 µM, first compound 0.0949 µM
[47] = second compound 3.16 µM, first compound 0.3 µM
[48] = second compound 3.16 µM, first compound 0.949 µM
[49] = second compound 3.16 µM, first compound 3 µM
[50] = second compound 10 µM, first compound 0.00949 µM
[51] = second compound 10 µM, first compound 0.03 µM
[52] = second compound 10 µM, first compound 0.0949 µM
[53] = second compound 10 µM, first compound 0.3 µM
[54] = second compound 10 µM, first compound 0.949 µM
[55] = second compound 10 µM, first compound 3 µM
[56] = second compound 0.1 µM, first compound 3.16 µM
[57] = second compound 0.1 µM, first compound 10 µM
[58] = second compound 0.316 µM, first compound 3.16 µM
[59] = second compound 0.316 µM, first compound 10 µM
[60] = second compound 1 µM, first compound 3.16 µM
[61] = second compound 1 µM, first compound 10 µM
[62] = second compound 3.16 µM, first compound 3.16 µM
[63] = second compound 3.16 µM, first compound 10 µM
[64] = second compound 10 µM, first compound 3.16 µM
[65] = second compound 10 µM, first compound 10 µM
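Also: spheroids exposed to agents for seven days.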
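For viability, T/C in this document: percent of DMSO vehicle control luminescence viability.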

Structure (SMILES): Nc1ncn(C2CC(O)C(CO)O2)c(=O)n1 (stereo unspecified) + NC1CC1c1ccc(-c2cccc(O)c2)cc1
IC50 [1]: > 1000 nM
IC50 [2]: > 1000 nM
IC50 [3]: > 1000 nM
IC50 [4]: > 1000 nM
IC50 [5]: > 1000 nM
viability, T/C (second compound 0.1 µM, first compound 0.00316 µM): 89.9%
viability, T/C (second compound 0.1 µM, first compound 0.01 µM): 81.6%
viability, T/C [6]: 83.7%
viability, T/C [7]: 76.3%
viability, T/C [8]: 58.7%
viability, T/C [9]: 52.4%
viability, T/C (second compound 0.316 µM, first compound 0.00316 µM): 78.3%
viability, T/C (second compound 0.316 µM, first compound 0.01 µM): 89.6%
viability, T/C [10]: 101%
viability, T/C [11]: 73.4%
viability, T/C [12]: 65.5%
viability, T/C [13]: 53.1%
viability, T/C (second compound 1 µM, first compound 0.00316 µM): 84.1%
viability, T/C (second compound 1 µM, first compound 0.01 µM): 91.2%
viability, T/C [14]: 86.6%
viability, T/C [15]: 76.9%
viability, T/C [16]: 68.8%
viability, T/C [17]: 59.8%
viability, T/C (second compound 3.16 µM, first compound 0.00316 µM): 80.9%
viability, T/C (second compound 3.16 µM, first compound 0.01 µM): 83.9%
viability, T/C [18]: 82.2%
viability, T/C [19]: 79%
viability, T/C [20]: 76%
viability, T/C [21]: 65.1%
viability, T/C (second compound 10 µM, first compound 0.00316 µM): 87.7%
viability, T/C (second compound 10 µM, first compound 0.01 µM): 94%
viability, T/C [22]: 95.9%
viability, T/C [23]: 80.7%
viability, T/C [24]: 75.5%
viability, T/C [25]: 67.4%

Structure (SMILES): Nc1ccccc1NC(=O)c1ccc(CNC(=O)OCc2cccnc2)cc1 + NC1CCC(NC2CC2c2ccccc2)CC1
IC50 [1]: 321 nM
IC50 [2]: 389 nM
IC50 [3]: 342 nM
IC50 [4]: 293 nM
IC50 [5]: 334 nM
viability, T/C [26]: 104%
viability, T/C [27]: 107%
viability, T/C [28]: 86.8%
viability, T/C [29]: 55.1%
viability, T/C [30]: 9.73%
viability, T/C [31]: 0.31%
viability, T/C [32]: 103%
viability, T/C [33]: 99%
viability, T/C [34]: 88.7%
viability, T/C [35]: 62.8%
viability, T/C [36]: 11.8%
viability, T/C [37]: 0.34%
viability, T/C [38]: 98.7%
viability, T/C [39]: 101%
viability, T/C [40]: 84.4%
viability, T/C [41]: 57%
viability, T/C [42]: 12.4%
viability, T/C [43]: 0.26%
viability, T/C [44]: 102%
viability, T/C [45]: 101%
viability, T/C [46]: 80.4%
viability, T/C [47]: 52.7%
viability, T/C [48]: 10.7%
viability, T/C [49]: 0.24%
viability, T/C [50]: 96.8%
viability, T/C [51]: 98%
viability, T/C [52]: 78.2%
viability, T/C [53]: 58.6%
viability, T/C [54]: 10.2%
viability, T/C [55]: 0.35%

IC50 (curve of compound): 0.488 nM and 0.537 nM
Structure (SMILES): CC(C)CC(NC(=O)C(Cc1ccccc1)NC(=O)c1cnccn1)B(O)O (stereo unspecified)
viability, T/C (compound 0.000316 µM): 79.9% and 91.8%
viability, T/C (compound 0.001 µM): 0.42% and 0.86%
viability, T/C (compound 0.00316 µM): 0.29% and 0.43%
viability, T/C (compound 0.01 µM): 0.18% and 0.38%
viability, T/C (compound 0.0316 µM): 0.31% and 0.4%
viability, T/C (compound 0.1 µM): 0.21% and 0.45%

IC50 (compound alone, run of 02/21/2022): > 10000 nM
Structure (SMILES): NC1CC1c1ccc(-c2cccc(O)c2)cc1 (stereo unspecified)
viability, T/C (compound 0.1 µM): 78.3%

IC50 (curve of compound): > 10000 nM
Structure (SMILES): CC(C)c1c(-c2ccccc2)nc2c(C#N)c[nH]n2c1=O
viability, T/C (compound 0.0316 µM): 104% and 98.1%
viability, T/C (compound 0.1 µM): 108% and 97.9%
viability, T/C (compound 0.316 µM): 105% and 104%
viability, T/C (compound 1 µM): 101% and 86.4%
viability, T/C (compound 3.16 µM): 102% and 94.2%
viability, T/C (compound 10 µM): 86.5% and 85.9%

Structure (SMILES): CC1(C)CCC(CN2CCN(c3ccc(C(=O)NS(=O)(=O)c4ccc(NCC5CCOCC5)c([N+](=O)[O-])c4)c(Oc4cnc5[nH]ccc5c4)c3)CC2)=C(c2ccc(Cl)cc2)C1 + NC1CC1c1ccc(-c2cccc(O)c2)cc1
IC50 [1]: 3980 nM
IC50 [2]: 3860 nM
IC50 [3]: 3900 nM
IC50 [4]: 4070 nM
IC50 [5]: 3860 nM
viability, T/C [6]: 93.2%
viability, T/C [7]: 86%
viability, T/C [8]: 95.6%
viability, T/C [9]: 92.8%
viability, T/C [56]: 62.4%
viability, T/C [57]: 0.69%
viability, T/C [10]: 81.4%
viability, T/C [11]: 93.3%
viability, T/C [12]: 91.6%
viability, T/C [13]: 84.6%
viability, T/C [58]: 60.4%
viability, T/C [59]: 1.04%
viability, T/C [14]: 82%
viability, T/C [15]: 92.6%
viability, T/C [16]: 96.4%
viability, T/C [17]: 86.9%
viability, T/C [60]: 61%
viability, T/C [61]: 0.96%
viability, T/C [18]: 87.9%
viability, T/C [19]: 89.4%
viability, T/C [20]: 99.4%
viability, T/C [21]: 90.2%
viability, T/C [62]: 63.7%
viability, T/C [63]: 1.07%
viability, T/C [22]: 98.4%
viability, T/C [23]: 103%
viability, T/C [24]: 107%
viability, T/C [25]: 86.6%
viability, T/C [64]: 61.2%
viability, T/C [65]: 0.78%

Structure (SMILES): COc1ccc([C@@H](O)c2cc(-c3ncnc4cc(N5CCOCC5)ccc34)c(F)cc2Cl)nn1 + NC1CCC(NC2CC2c2ccccc2)CC1
IC50 [1]: 838 nM
IC50 [2]: 973 nM
IC50 [3]: 640 nM
IC50 [4]: 795 nM
IC50 [5]: 742 nM
viability, T/C [6]: 81.5%
viability, T/C [7]: 80.9%
viability, T/C [8]: 66.5%
viability, T/C [9]: 42.9%
viability, T/C [56]: 38.6%
viability, T/C [57]: 22.7%
viability, T/C [10]: 74.4%
viability, T/C [11]: 72.3%
viability, T/C [12]: 65.3%
viability, T/C [13]: 45%
viability, T/C [58]: 38.8%
viability, T/C [59]: 22.4%
viability, T/C [14]: 77.4%
viability, T/C [15]: 81.8%
viability, T/C [16]: 57.8%
viability, T/C [17]: 42.6%
viability, T/C [60]: 30.9%
viability, T/C [61]: 19.7%
viability, T/C [18]: 80.7%
viability, T/C [19]: 80.7%
viability, T/C [20]: 65%
viability, T/C [21]: 45.8%
viability, T/C [62]: 29.1%
viability, T/C [63]: 19.3%
viability, T/C [22]: 80%
viability, T/C [23]: 79.5%
viability, T/C [24]: 64.5%
viability, T/C [25]: 42.2%
viability, T/C [64]: 30.5%
viability, T/C [65]: 15.4%

Structure (SMILES): CCN(c1cc(-c2ccc(CN3CCOCC3)cc2)cc(C(=O)NCc2c(C)cc(C)[nH]c2=O)c1C)C1CCOCC1 + NC1CC1c1ccc(-c2cccc(O)c2)cc1
IC50 [1]: > 3000 nM
IC50 [2]: > 3000 nM
IC50 [3]: > 3000 nM
IC50 [4]: > 3000 nM
IC50 [5]: > 3000 nM
viability, T/C [26]: 98.8%
viability, T/C [27]: 96.3%
viability, T/C [28]: 87.4%
viability, T/C [29]: 82.1%
viability, T/C [30]: 86.8%
viability, T/C [31]: 72.3%
viability, T/C [32]: 89%
viability, T/C [33]: 85.2%
viability, T/C [34]: 82.4%
viability, T/C [35]: 82.2%
viability, T/C [36]: 82.2%
viability, T/C [37]: 77.5%
viability, T/C [38]: 75.5%
viability, T/C [39]: 88.3%
viability, T/C [40]: 88.4%
viability, T/C [41]: 87.1%
viability, T/C [42]: 79.8%
viability, T/C [43]: 85.7%
viability, T/C [44]: 91.2%
viability, T/C [45]: 91.6%
viability, T/C [46]: 92.4%
viability, T/C [47]: 83.9%
viability, T/C [48]: 70.9%
viability, T/C [49]: 77.7%
viability, T/C [50]: 83.4%
viability, T/C [51]: 110%
viability, T/C [52]: 92.2%
viability, T/C [53]: 82.7%
viability, T/C [54]: 80.3%
viability, T/C [55]: 76.7%
